These results are taken from PubChem BioAssay AID1918941 (Molecular Pharmacology Branch, DTP, NCI, 2023).

Values joined by “and” are separate entries in the source; they are usually repeats but may differ in a detail not shown here. Equal entries are not always repeated.

This assay concerns SW 1271 complex spheroids, viability. Description: Anticancer human tumor SW 1271 cell line growth inhibition [LSD1].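 On all read-outs here: spheroids exposed to agents for 7 days before luminescence read.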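 On viability, T/C: 100% = DMSO vehicle control viability.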 The note with it: for viability, T/C: stronger effect = lower value. In a few lines: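 Drug combinations with the LSD1 inhibitor iadademstat tested on tumor cells co-cultured as spheroids with endothelial cells and mesenchymal stem cells. Concentrations descended in half-log increments from clinical Cmax or 10 microM.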

Setting [1] is: curve of first compound, second compound 0.1 µM.
Setting [2] is: curve of first compound, second compound 0.316 µM.
Where [3] appears, read: curve of first compound, second compound 1 µM.
Setting [4] is: curve of first compound, second compound 3.16 µM.
The mark [5] stands for this setting: curve of first compound, second compound 10 µM.
Setting [6] is: second compound 0.1 µM, first compound 0.00949 µM.
Setting [7] is: second compound 0.1 µM, first compound 0.03 µM.
Where [8] appears, read: second compound 0.1 µM, first compound 0.0949 µM.
Setting [9] is: second compound 0.1 µM, first compound 0.3 µM.
Where [10] appears, read: second compound 0.316 µM, first compound 0.00949 µM.
The mark [11] stands for this setting: second compound 0.316 µM, first compound 0.03 µM.
Setting [12] is: second compound 0.316 µM, first compound 0.0949 µM.
Setting [13] is: second compound 0.316 µM, first compound 0.3 µM.
Where [14] appears, read: second compound 1 µM, first compound 0.00949 µM.
Setting [15] is: second compound 1 µM, first compound 0.03 µM.
Setting [16] is: second compound 1 µM, first compound 0.0949 µM.
Where [17] appears, read: second compound 1 µM, first compound 0.3 µM.
[18] abbreviates: second compound 3.16 µM, first compound 0.00949 µM.
Setting [19] is: second compound 3.16 µM, first compound 0.03 µM.
Where [20] appears, read: second compound 3.16 µM, first compound 0.0949 µM.
The mark [21] stands for this setting: second compound 3.16 µM, first compound 0.3 µM.
[22] abbreviates: second compound 10 µM, first compound 0.00949 µM.
Setting [23] is: second compound 10 µM, first compound 0.03 µM.
[24] abbreviates: second compound 10 µM, first compound 0.0949 µM.
[25] abbreviates: second compound 10 µM, first compound 0.3 µM.

In the case of `Nc1ccccc1NC(=O)c1ccc(CNC(=O)OCc2cccnc2)cc1` + NC1CC1c1ccc(-c2cccc(O)c2)cc1, the IC50 by setting is: under setting [1], 106 nM; under setting [2], 120 nM; under setting [3], 62.6 nM; under setting [4], 76.2 nM; under setting [5], 38.1 nM. Also, the viability, T/C by setting is: under setting [6], 85.6%; under setting [7], 65.7%; under setting [8], 56.7%; under setting [9], 29.6%; (second compound 0.1 µM, first compound 0.949 µM) 8.17%; (second compound 0.1 µM, first compound 3 µM) 3.78%. Also, the viability, T/C is 89.2% under setting [10]; 75.3% under setting [11]; 57.3% under setting [12]; 27.7% under setting [13]; 6.71% (second compound 0.316 µM, first compound 0.949 µM); 4.39% (second compound 0.316 µM, first compound 3 µM). For the same compound, the viability, T/C was 94.3% under setting [14]; 59.9% under setting [15]; 46.6% under setting [16]; 26.6% under setting [17]; 7.28% (second compound 1 µM, first compound 0.949 µM); 5.61% (second compound 1 µM, first compound 3 µM). The viability, T/C by setting is: under setting [18], 81.3%; under setting [19], 69.7%; under setting [20], 40.5%; under setting [21], 32.4%; (second compound 3.16 µM, first compound 0.949 µM) 10%; (second compound 3.16 µM, first compound 3 µM) 4.69%. Further, the viability, T/C is 66.7% under setting [22]; 51.9% under setting [23]; 38.6% under setting [24]; 29.4% under setting [25]; 11.7% (second compound 10 µM, first compound 0.949 µM); 6.45% (second compound 10 µM, first compound 3 µM).
As to `Nc1ccccc1NC(=O)c1ccc(CNC(=O)OCc2cccnc2)cc1`, the viability, T/C (compound 0.00949 µM) is 90.7% and 84.4%; the viability, T/C (compound 0.03 µM) is 83.4% and 69.1%; the viability, T/C (compound 0.0949 µM) was 61.4% and 59.8%; the viability, T/C (compound 0.3 µM) is 35.6% and 29.2%; the viability, T/C (compound 0.949 µM) was 10.2% and 7.11%; the viability, T/C (compound 3 µM) was 6.48% and 7.88%. For the same compound, where the note is “curve of compound”, the IC50 was 156 nM and 127 nM.
As for `COc1cc(Nc2ncc3c(n2)-c2ccc(Cl)cc2C(c2c(F)cccc2OC)=NC3)ccc1C(=O)O` + NC1CCC(NC2CC2c2ccccc2)CC1, the IC50 under setting [1] is 200 nM; the IC50 under setting [2] turned out to be 148 nM; the IC50 under setting [3] stood at 184 nM; the IC50 under setting [4] worked out at 175 nM; the IC50 under setting [5] was 186 nM. The viability, T/C reads like this: (second compound 0.1 µM, first compound 0.00316 µM) 84.2%; (second compound 0.1 µM, first compound 0.01 µM) 78.2%; (second compound 0.1 µM, first compound 0.0316 µM) 80.3%; (second compound 0.1 µM, first compound 0.1 µM) 59.5%; (second compound 0.1 µM, first compound 0.316 µM) 42.9%; (second compound 0.1 µM, first compound 1 µM) 16%. For the same compound, the viability, T/C reads like this: (second compound 0.316 µM, first compound 0.00316 µM) 81.2%; (second compound 0.316 µM, first compound 0.01 µM) 80.3%; (second compound 0.316 µM, first compound 0.0316 µM) 75.9%; (second compound 0.316 µM, first compound 0.1 µM) 55.4%; (second compound 0.316 µM, first compound 0.316 µM) 36%; (second compound 0.316 µM, first compound 1 µM) 13.5%. In addition, the viability, T/C reads like this: (second compound 1 µM, first compound 0.00316 µM) 83.5%; (second compound 1 µM, first compound 0.01 µM) 81.9%; (second compound 1 µM, first compound 0.0316 µM) 85.4%; (second compound 1 µM, first compound 0.1 µM) 58.3%; (second compound 1 µM, first compound 0.316 µM) 40.4%; (second compound 1 µM, first compound 1 µM) 13.7%. Further, the viability, T/C (second compound 3.16 µM, first compound 0.00316 µM) is 97.3%; the viability, T/C (second compound 3.16 µM, first compound 0.01 µM) is 80.4%; the viability, T/C (second compound 3.16 µM, first compound 0.0316 µM) is 84.8%; the viability, T/C (second compound 3.16 µM, first compound 0.1 µM) was 62.1%; the viability, T/C (second compound 3.16 µM, first compound 0.316 µM) is 36.3%; the viability, T/C (second compound 3.16 µM, first compound 1 µM) was 15.1%. Besides, the viability, T/C by setting is: (second compound 10 µM, first compound 0.00316 µM) 81.3%; (second compound 10 µM, first compound 0.01 µM) 80.5%; (second compound 10 µM, first compound 0.0316 µM) 79.7%; (second compound 10 µM, first compound 0.1 µM) 59.2%; (second compound 10 µM, first compound 0.316 µM) 40.7%; (second compound 10 µM, first compound 1 µM) 14.1%.
On to `CC(C)CC(NC(=O)C(Cc1ccccc1)NC(=O)c1cnccn1)B(O)O` (stereo unspecified), for which the viability, T/C reads like this: (compound 0.000316 µM) 1.55% and 4.22%; (compound 0.001 µM) 0.42% and 0.29%; (compound 0.00316 µM) 0.34% and 0.36%; (compound 0.01 µM) 0.16% and 0.3%; (compound 0.0316 µM) 0.16% and 0.18%; (compound 0.1 µM) 0.24% and 0.23%. Further, the half-maximal inhibitory concentration (IC50) (curve of compound) is less than 0.316 nM.
Take `Nc1ccn(C2OC(CO)C(O)C2(F)F)c(=O)n1` (stereo unspecified) + NC1CC1c1ccc(-c2cccc(O)c2)cc1: the 50% inhibitory concentration (IC50) under setting [1] is greater than 300 nM; the IC50 under setting [2] is greater than 300 nM; the IC50 under setting [3] is greater than 300 nM; the IC50 under setting [4] is greater than 300 nM; the IC50 under setting [5] is greater than 300 nM. The viability, T/C runs as follows: (second compound 0.1 µM, first compound 0.000949 µM) 76.7%; (second compound 0.1 µM, first compound 0.003 µM) 68.7%; under setting [6], 63.3%; under setting [7], 54%; under setting [8], 64.9%; under setting [9], 58%. For the same compound, the viability, T/C runs as follows: (second compound 0.316 µM, first compound 0.000949 µM) 65.9%; (second compound 0.316 µM, first compound 0.003 µM) 54.7%; under setting [10], 55.7%; under setting [11], 57.4%; under setting [12], 54.3%; under setting [13], 64.2%. The viability, T/C is 62.1% (second compound 1 µM, first compound 0.000949 µM); 64.2% (second compound 1 µM, first compound 0.003 µM); 57.5% under setting [14]; 55.5% under setting [15]; 58.5% under setting [16]; 61.3% under setting [17]. In addition, the viability, T/C by setting is: (second compound 3.16 µM, first compound 0.000949 µM) 65.3%; (second compound 3.16 µM, first compound 0.003 µM) 58.3%; under setting [18], 51.4%; under setting [19], 52%; under setting [20], 56.2%; under setting [21], 47.3%. Besides, the viability, T/C (second compound 10 µM, first compound 0.000949 µM) is 62.1%; the viability, T/C (second compound 10 µM, first compound 0.003 µM) is 57.7%; the viability, T/C under setting [22] was 51.1%; the viability, T/C under setting [23] was 60.1%; the viability, T/C under setting [24] was 48.5%; the viability, T/C under setting [25] was 51.2%.
In the case of `CC[C@@]1(O)C(=O)OCc2c1cc1n(c2=O)Cc2cc3c(CN(C)C)c(O)ccc3nc2-1`, the viability, T/C was 88.2% and 98.2% (compound 0.000316 µM); 89.6% and 109% (compound 0.001 µM); 72.7% and 75.3% (compound 0.00316 µM); 66.6% and 85.6% (compound 0.01 µM); 58.7% and 65.7% (compound 0.0316 µM); 49.4% and 53.2% (compound 0.1 µM). Further, the IC50 (curve of compound) was greater than 100 nM.

The term IC50 denotes the concentration needed to halve the response being measured. By viability, T/C is commonly meant the ratio of treated to control.
